From patent US7417066B2, “Inhibitors of soluble adenylate cyclase” (Schering AG, priority 2005, dated 2008) come the findings set out here.

Molecules are shown by their SMILES.

For the test, the target named is soluble, sperm-specific adenylate cyclase (sAC) (Homo sapiens, UniProt Q96PN6). The test is described as follows: sAC assay (HTRF cAMP detection). Format: biochemical. As to conditions: read-out: IC50 (μM), inhibition of soluble adenylate cyclase. The source says: In a suitable buffer system, soluble, sperm-specific adenylate cyclase catalyzes the conversion of adenosine triphosphate (ATP) to cyclic adenosine monophosphate (cAMP) and pyrophosphate. Free cAMP generated in this way is then used in a competitive detection technique, in which the binding of a europium cryptate Eu[K]-labeled anti-cAMP antibody (anti-cAMP-Eu[K]-AB) to a modified allophycocyanine-1 molecule labeled with cAMP molecules (cAMP-XL665) is prevented. In the absence of exogenous cAMP, after excitation at 335 nm there is Fluorescence Resonance Energy Transfer (FRET) between the anti-cAMP-Eu[K]-AB (FRET donor) and the cAMP-XL665 molecule (FRET acceptor). This process is quantified, time-resolved, on the basis of the emission of the FRET acceptor XL665 (665 nm and 620 nm). A decrease in signal (measured as Well Ratio; calculated from the Formula: [(E665 nm/E620 nm)×10000]) can be attributed to the presence of cAMP and thus to the activity of sAC. First, 1.5 μl of the test substance (in 30% DMSO) is placed in each well of a 384-well test plate (polystyrene; 384, NV), and in the solvent controls only 30% DMSO. Then 10 μl of a dilute sAC enzyme solution is applied (enzyme stock solution in 300 mM NaCl, 10% glycerol; pH 7.6; enzyme intermediate and final dilution a) 1:10 and b) 1:2000 in each case in: 1.0 mM MnCl2; 0.2% BSA; 50 mM Tris pH 7.5 in H2O). […]
Next, 8 μl of detection solution 1 is placed in a well of the 384-well measuring plate (measuring plate: polystyrene; 384, SV—black; detection solution 1: 50 μl cAMP-XL665; 950 μl reconstituted buffer; 2200 μl PBS; cAMP-XL665: prepared by adding 5 ml H2O to the lyophilized product according to the instructions in Cis bio Kit: 62AMPPEC; storage: in aliquots at −80° C.). […] After further incubation for 90 min at room temperature, the HTRF result is measured either on the Packard Discovery or with the RubiStar HTRF measuring instrument (delay: 50 μs; integration time: 400 μs).

Sequence of soluble, sperm-specific adenylate cyclase (sAC) (Q96PN6 whole entry): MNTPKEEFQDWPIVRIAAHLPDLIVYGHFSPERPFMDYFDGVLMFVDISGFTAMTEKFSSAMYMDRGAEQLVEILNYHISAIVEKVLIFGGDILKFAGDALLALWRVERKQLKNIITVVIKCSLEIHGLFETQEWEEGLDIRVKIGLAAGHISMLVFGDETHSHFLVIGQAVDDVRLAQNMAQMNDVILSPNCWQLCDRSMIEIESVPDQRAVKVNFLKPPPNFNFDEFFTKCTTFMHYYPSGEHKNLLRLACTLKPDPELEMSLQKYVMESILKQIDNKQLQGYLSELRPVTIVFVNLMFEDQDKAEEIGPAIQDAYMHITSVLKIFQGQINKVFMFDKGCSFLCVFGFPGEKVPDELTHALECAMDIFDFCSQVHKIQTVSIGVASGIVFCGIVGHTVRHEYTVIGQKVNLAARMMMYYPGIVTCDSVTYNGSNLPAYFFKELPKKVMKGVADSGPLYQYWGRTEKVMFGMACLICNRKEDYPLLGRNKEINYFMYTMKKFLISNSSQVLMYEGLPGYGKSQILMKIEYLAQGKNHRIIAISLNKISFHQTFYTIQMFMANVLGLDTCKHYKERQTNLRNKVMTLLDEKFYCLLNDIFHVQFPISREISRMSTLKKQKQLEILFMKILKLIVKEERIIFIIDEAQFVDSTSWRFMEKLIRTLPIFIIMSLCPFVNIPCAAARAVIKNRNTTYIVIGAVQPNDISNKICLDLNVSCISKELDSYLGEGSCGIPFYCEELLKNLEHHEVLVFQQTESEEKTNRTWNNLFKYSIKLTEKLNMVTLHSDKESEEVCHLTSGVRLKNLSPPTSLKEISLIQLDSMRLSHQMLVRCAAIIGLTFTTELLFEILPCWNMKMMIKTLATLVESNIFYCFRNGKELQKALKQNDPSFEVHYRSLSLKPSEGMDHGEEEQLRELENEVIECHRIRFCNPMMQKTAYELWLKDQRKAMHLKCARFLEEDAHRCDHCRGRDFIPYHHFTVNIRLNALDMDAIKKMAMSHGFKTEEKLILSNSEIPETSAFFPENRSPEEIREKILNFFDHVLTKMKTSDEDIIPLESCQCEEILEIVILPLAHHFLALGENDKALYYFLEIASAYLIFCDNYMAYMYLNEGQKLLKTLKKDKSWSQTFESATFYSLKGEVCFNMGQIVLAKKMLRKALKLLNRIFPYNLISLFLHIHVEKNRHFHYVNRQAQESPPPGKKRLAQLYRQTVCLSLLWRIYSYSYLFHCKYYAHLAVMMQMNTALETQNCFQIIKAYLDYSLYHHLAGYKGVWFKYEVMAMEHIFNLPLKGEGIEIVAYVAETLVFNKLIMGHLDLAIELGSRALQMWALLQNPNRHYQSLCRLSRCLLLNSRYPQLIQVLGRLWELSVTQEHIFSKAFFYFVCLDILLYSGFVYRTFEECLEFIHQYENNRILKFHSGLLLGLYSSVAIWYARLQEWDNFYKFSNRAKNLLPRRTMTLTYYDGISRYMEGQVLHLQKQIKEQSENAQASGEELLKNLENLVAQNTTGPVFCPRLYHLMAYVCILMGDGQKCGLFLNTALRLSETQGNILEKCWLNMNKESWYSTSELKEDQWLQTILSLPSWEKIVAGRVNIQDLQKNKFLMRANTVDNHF

Take `CC(C)(C)c1ccc(S(=O)(=O)Nc2ccc3oc(C(=O)NCCN4CCOCC4)c(-c4ccccc4)c3c2)cc1` [Example 6, 5-(4-tert-Butylbenzenesulfonylamino)-3-phe-nyl-1-benzofuran-2-carboxylicacid-(2-morpholin-4-ylethyl)amide]: the IC50 stood at 5.2 µM.

Consider `CC(O)CNC(=O)c1oc2ccc(NS(=O)(=O)c3ccc(C(C)(C)C)cc3)cc2c1-c1ccccc1` (racemic) [Example 16, (+/−)-5-(4-tert-Butylphenylsulfonylamino)-3-phe-nyl-1-benzofuran-2-carboxylicacid-(2-hydroxypropyl)amide], for which the IC50 came to 4.3 µM.

As for `CC(CO)NC(=O)c1oc2ccc(NS(=O)(=O)c3ccc(C(C)(C)C)cc3)cc2c1-c1ccccc1` (racemic) [Example 17, (+/−)-5-(4-tert-Butylbenzenesulfonylamino)-3-phe-nyl-1-benzofuran-2-carboxylicacid-(2-hydroxy-1-meth-ylethyl)amide], the IC50 amounted to 8.5 µM.
